Measured values published in patent publication US20180250261A1, “METHOD FOR TREATING CANCER WITH A STAT3 PATHWAY INHIBITOR AND KINASE INHIBITOR” (BOSTON BIOMEDICAL, INC., priority 2015, published 2018).

Key:
STAT3 pathway = details: according to U.S. Pat. No. 8,877,803; read-out: STAT3 pathway activity, cellular IC50; cited from earlier work
p-STAT3 = target: T1, p-STAT3 (Homo sapiens, UniProt P40763); experiment: immunofluorescence staining of SW480 xenograft tissue, p-STAT3; type: in vivo; details: nude mice, oral daily, 14 doses, Compound A 100 mg/kg, Compound B 50 mg/kg, FIG. 6A
T1 construct: from tissue; host or cells: human SW480 colon cancer xenograft tumours grown in female nude mice
T1 sequence (P40763 whole entry): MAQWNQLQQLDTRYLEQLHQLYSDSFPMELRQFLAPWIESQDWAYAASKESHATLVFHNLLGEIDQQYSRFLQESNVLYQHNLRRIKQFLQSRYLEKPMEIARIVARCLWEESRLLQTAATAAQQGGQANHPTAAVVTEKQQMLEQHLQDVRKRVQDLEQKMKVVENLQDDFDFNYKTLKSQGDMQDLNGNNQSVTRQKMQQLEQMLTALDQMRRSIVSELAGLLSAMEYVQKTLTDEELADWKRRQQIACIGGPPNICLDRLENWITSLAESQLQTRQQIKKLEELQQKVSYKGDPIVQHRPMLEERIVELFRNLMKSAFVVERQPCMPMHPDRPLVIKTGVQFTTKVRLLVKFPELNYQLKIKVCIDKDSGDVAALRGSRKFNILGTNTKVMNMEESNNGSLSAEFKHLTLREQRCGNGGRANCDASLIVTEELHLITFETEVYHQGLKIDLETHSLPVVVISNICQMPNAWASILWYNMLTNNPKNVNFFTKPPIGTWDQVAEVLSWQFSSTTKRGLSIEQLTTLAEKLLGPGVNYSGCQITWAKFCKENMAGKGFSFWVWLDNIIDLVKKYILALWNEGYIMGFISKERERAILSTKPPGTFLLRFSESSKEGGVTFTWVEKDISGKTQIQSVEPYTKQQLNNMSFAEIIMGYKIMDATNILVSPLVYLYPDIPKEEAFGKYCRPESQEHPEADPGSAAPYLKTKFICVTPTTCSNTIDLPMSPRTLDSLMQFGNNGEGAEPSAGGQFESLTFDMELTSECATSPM

STK33 = target: T2, STK33 (Homo sapiens, UniProt Q9BYT3); experiment: immunofluorescence staining of SW480 xenograft tissue, STK33; type: in vivo; details: nude mice, oral daily, 14 doses, Compound A 100 mg/kg, Compound B 50 mg/kg, FIG. 6B
T2 construct: from tissue; host or cells: human SW480 colon cancer xenograft tumours grown in female nude mice
T2 sequence (Q9BYT3 whole entry): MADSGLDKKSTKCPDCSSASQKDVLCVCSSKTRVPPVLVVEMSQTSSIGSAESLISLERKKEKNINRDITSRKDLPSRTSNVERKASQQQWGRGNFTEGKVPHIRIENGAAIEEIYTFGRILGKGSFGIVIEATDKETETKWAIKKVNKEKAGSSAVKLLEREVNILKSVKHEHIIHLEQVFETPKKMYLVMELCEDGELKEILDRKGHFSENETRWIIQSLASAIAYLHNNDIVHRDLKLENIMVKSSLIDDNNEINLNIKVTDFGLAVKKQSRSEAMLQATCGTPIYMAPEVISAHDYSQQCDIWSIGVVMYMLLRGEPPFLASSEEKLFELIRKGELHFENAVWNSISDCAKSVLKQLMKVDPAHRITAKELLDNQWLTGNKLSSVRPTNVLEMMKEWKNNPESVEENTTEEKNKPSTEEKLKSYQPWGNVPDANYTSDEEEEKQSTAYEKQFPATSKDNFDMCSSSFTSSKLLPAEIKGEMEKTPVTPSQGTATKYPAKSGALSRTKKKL
Experimental: (§1) The effect of a treatment combination of Compound A and Compound B on the levels of various pharmacodynamic (PD) markers for the agents in vivo was studied. A mouse xenograft model of human colon cancer (SW480) was used.
(§2) Levels of STK33 and Nanog were examined using immunofluorescence staining of the xenograft tissue. Female nude mice were inoculated subcutaneously with 8×10^6 human SW480 colon cancer cells. Animals were treated orally daily with vehicle, Compound A (100 mg/kg), Compound B (50 mg/kg), or Compound A and Compound B (100 mg/kg and 50 mg/kg, respectively) for a total of 14 doses. At the end of treatment, the tumors were harvested from euthanized mice. Part of the dissected tumors were fixed overnight in 3.7% neutral buffered formaldehyde at 4° C., and then paraffin embedded, cut to four micron sections, and affixed onto positively charged slides. After being baked and deparaffinized, the slides with tumor or control tissues were incubated in 10mM pH6.0 sodium citrate solution for antigen retrieval at 98° C. […] After being mounted with ProLong mounting medium containing DAPI (Invitrogen), the slides were examined on a Zeiss Axis Imager M2 upright fluorescence microscope with a 20× objective and analyzed with Zen software.

Nanog = experiment: immunofluorescence staining of SW480 xenograft tissue, Nanog; type: in vivo, human; details: nude mice, oral daily, 14 doses, Compound A 100 mg/kg, Compound B 50 mg/kg, FIG. 6B
Experimental: as §1, §2

cellular levels of p-STAT3 in xenograft tissue (p-STAT3)	cytoplasmic levels of STK33 in xenograft tissue (STK33)	nuclear levels of STK33 in xenograft tissue (STK33)	Compound	IC50 (STAT3 pathway)	cytoplasmic levels of Nanog in xenograft tissue (Nanog)	nuclear levels of Nanog in xenograft tissue (Nanog)
significantly reduced	reduced		CC(=O)c1cc2c(o1)C(=O)c1ccccc1C2=O [Compound A, 2-acetylnaphtho[2,3-b]furan-4,9-dione]	~250 nM	reduced	
		reduced	CCN(CC)CCNC(=O)c1c(C)[nH]c(/C=C2\C(=O)Nc3ccc(-c4csc(-c5ccccc5)n4)cc32)c1C [Compound B]			reduced
